ChEMBL document CHEMBL3885861, “Open TG-GATES”

Species: Rattus norvegicus
Assay: Open TG-GATES - Regimen: Daily Repeat
Type: toxicity, organism-based, Sprague-Dawley
Parameters: regimen Daily Repeat, gender Male, age 6 weeks
Settings: in vivo, po, 15 mg/kg, route gavage, dose level Middle; for APTT / Bas / Eos / Fbg / Hb / Ht / Lym / MCH / MCHC / MCV / Mono / Neu / PT / Plat / RBC / Ret / WBC: tissue Blood; for LIVER: tissue Liver; for A/G / ALP / ALT / AST / BUN / CRE / Ca / Cl / DBIL / GLC / IP / K / LDH / Na / PL / RALB / TBIL / TC / TG / TP / gamma-GTP: tissue Plasma

C=C(C)[C@H]1Cc2c(ccc3c2O[C@@H]2COc4cc(OC)c(OC)cc4[C@@H]2C3=O)O1 [ROTENONE]
TERMINAL_BW (72 h, time 3 day): 217.2 g
APTT (72 h, time 3 day): 15.9 s
Bas (72 h, time 3 day): 0%
Eos (72 h, time 3 day): 1%
Fbg (72 h, time 3 day): 211.8 mg/dL
Hb (72 h, time 3 day): 13.1 g/dL
Ht (72 h, time 3 day): 40.2%
Lym (72 h, time 3 day): 71%
MCH (72 h, time 3 day): 20.9 pg
MCHC (72 h, time 3 day): 32.7%
MCV (72 h, time 3 day): 63.9 fL
Mono (72 h, time 3 day): 7.8%
Neu (72 h, time 3 day): 20.4%
PT (72 h, time 3 day): 11.8 s
Plat (72 h, time 3 day): 122 x10_4/uL
RBC (72 h, time 3 day): 628.8 x10_4/ul
Ret (72 h, time 3 day): 6.1%
WBC (72 h, time 3 day): 99.8 x10_2/uL
LIVER (72 h, time 3 day): 10.7 g
A/G (72 h, time 3 day): 2.2
ALP (72 h, time 3 day): 1449.2 IU/L
ALT (72 h, time 3 day): 37.8 IU/L
AST (72 h, time 3 day): 70.6 IU/L
BUN (72 h, time 3 day): 17 mg/dL
CRE (72 h, time 3 day): 0.4 mg/dL
Ca (72 h, time 3 day): 11.8 mg/dL
Cl (72 h, time 3 day): 104.2 meq/L
DBIL (72 h, time 3 day): 0.014 mg/dL
GLC (72 h, time 3 day): 188.4 mg/dL
IP (72 h, time 3 day): 7.3 mg/dL
K (72 h, time 3 day): 4.3 meq/L
LDH (72 h, time 3 day): 117 IU/L
Na (72 h, time 3 day): 141.8 meq/L
PL (72 h, time 3 day): 149.8 mg/dL
RALB (72 h, time 3 day): 3.7 g/dL
TBIL (72 h, time 3 day): 0.038 mg/dL
TC (72 h, time 3 day): 79.2 mg/dL
TG (72 h, time 3 day): 104.8 mg/dL
TP (72 h, time 3 day): 5.5 g/dL
gamma-GTP (72 h, time 3 day): 0.6 IU/L
TERMINAL_BW ([…], time 7 day): 254.3 g
TERMINAL_BW ([…], time 14 day): 305.1 g
TERMINAL_BW ([…], time 28 day): 389.3 g
APTT ([…], time 7 day): 17 s
Bas ([…], time 7 day): 0%
Eos ([…], time 7 day): 1%
Fbg ([…], time 7 day): 237.8 mg/dL
Hb ([…], time 7 day): 13.3 g/dL
Ht ([…], time 7 day): 40.4%
Lym ([…], time 7 day): 74.2%
MCH ([…], time 7 day): 20.6 pg
MCHC ([…], time 7 day): 32.8%
MCV ([…], time 7 day): 62.9 fL
Mono ([…], time 7 day): 5.8%
Neu ([…], time 7 day): 19.2%
PT ([…], time 7 day): 11.4 s
Plat ([…], time 7 day): 140.2 x10_4/uL
RBC ([…], time 7 day): 643.4 x10_4/ul
Ret ([…], time 7 day): 5%
WBC ([…], time 7 day): 113.4 x10_2/uL
APTT ([…], time 14 day): 15.6 s
Bas ([…], time 14 day): 0%
Eos ([…], time 14 day): 1%
Fbg ([…], time 14 day): 240.8 mg/dL
Hb ([…], time 14 day): 13.8 g/dL
Ht ([…], time 14 day): 41.7%
Lym ([…], time 14 day): 75.2%
MCH ([…], time 14 day): 20.6 pg
MCHC ([…], time 14 day): 33%
MCV ([…], time 14 day): 62.3 fL
Mono ([…], time 14 day): 3.8%
Neu ([…], time 14 day): 20.2%
PT ([…], time 14 day): 11.5 s
Plat ([…], time 14 day): 130 x10_4/uL
RBC ([…], time 14 day): 670.4 x10_4/ul
Ret ([…], time 14 day): 3.8%
WBC ([…], time 14 day): 127.2 x10_2/uL
APTT ([…], time 28 day): 18 s
Bas ([…], time 28 day): 0%
Eos ([…], time 28 day): 1.2%
Fbg ([…], time 28 day): 196.8 mg/dL
Hb ([…], time 28 day): 14.9 g/dL
Ht ([…], time 28 day): 45.4%
Lym ([…], time 28 day): 77.8%
MCH ([…], time 28 day): 18.9 pg
MCHC ([…], time 28 day): 32.8%
MCV ([…], time 28 day): 57.7 fL
Mono ([…], time 28 day): 5%
Neu ([…], time 28 day): 16.2%
PT ([…], time 28 day): 12.5 s
Plat ([…], time 28 day): 126.2 x10_4/uL
RBC ([…], time 28 day): 786 x10_4/ul
Ret ([…], time 28 day): 1.8%
WBC ([…], time 28 day): 111.5 x10_2/uL
LIVER ([…], time 7 day): 13 g
LIVER ([…], time 14 day): 14.1 g
LIVER ([…], time 28 day): 17.3 g
A/G ([…], time 7 day): 2.2
ALP ([…], time 7 day): 1376.6 IU/L
ALT ([…], time 7 day): 35.4 IU/L
AST ([…], time 7 day): 67 IU/L
BUN ([…], time 7 day): 17.2 mg/dL
CRE ([…], time 7 day): 0.4 mg/dL
Ca ([…], time 7 day): 11.5 mg/dL
Cl ([…], time 7 day): 103.2 meq/L
DBIL ([…], time 7 day): 0.016 mg/dL
GLC ([…], time 7 day): 198.6 mg/dL
IP ([…], time 7 day): 7.4 mg/dL
K ([…], time 7 day): 4.3 meq/L
LDH ([…], time 7 day): 110.8 IU/L
Na ([…], time 7 day): 140.4 meq/L
PL ([…], time 7 day): 150.6 mg/dL
RALB ([…], time 7 day): 3.8 g/dL
TBIL ([…], time 7 day): 0.036 mg/dL
TC ([…], time 7 day): 82.4 mg/dL
TG ([…], time 7 day): 105.2 mg/dL
TP ([…], time 7 day): 5.6 g/dL
gamma-GTP ([…], time 7 day): 1 IU/L
A/G ([…], time 14 day): 2.1
ALP ([…], time 14 day): 1261.6 IU/L
ALT ([…], time 14 day): 36.2 IU/L
AST ([…], time 14 day): 68.4 IU/L
BUN ([…], time 14 day): 18.4 mg/dL
CRE ([…], time 14 day): 0.4 mg/dL
Ca ([…], time 14 day): 11.6 mg/dL
Cl ([…], time 14 day): 105 meq/L
DBIL ([…], time 14 day): 0.01 mg/dL
GLC ([…], time 14 day): 188.6 mg/dL
IP ([…], time 14 day): 6.9 mg/dL
K ([…], time 14 day): 4.4 meq/L
LDH ([…], time 14 day): 103.6 IU/L
Na ([…], time 14 day): 139.6 meq/L
PL ([…], time 14 day): 140 mg/dL
RALB ([…], time 14 day): 3.9 g/dL
TBIL ([…], time 14 day): 0.028 mg/dL
TC ([…], time 14 day): 77.4 mg/dL
TG ([…], time 14 day): 95.2 mg/dL
TP ([…], time 14 day): 5.7 g/dL
gamma-GTP ([…], time 14 day): 1 IU/L
A/G ([…], time 28 day): 2
ALP ([…], time 28 day): 1146.8 IU/L
ALT ([…], time 28 day): 29.2 IU/L
AST ([…], time 28 day): 62 IU/L
BUN ([…], time 28 day): 19.5 mg/dL
CRE ([…], time 28 day): 0.4 mg/dL
Ca ([…], time 28 day): 10.9 mg/dL
Cl ([…], time 28 day): 105.2 meq/L
DBIL ([…], time 28 day): 0.01 mg/dL
GLC ([…], time 28 day): 186 mg/dL
IP ([…], time 28 day): 5.7 mg/dL
K ([…], time 28 day): 4.5 meq/L
LDH ([…], time 28 day): 124.8 IU/L
Na ([…], time 28 day): 141 meq/L
PL ([…], time 28 day): 150.8 mg/dL
RALB ([…], time 28 day): 3.9 g/dL
TBIL ([…], time 28 day): 0.0325 mg/dL
TC ([…], time 28 day): 68.5 mg/dL
TG ([…], time 28 day): 180.2 mg/dL
TP ([…], time 28 day): 5.9 g/dL
gamma-GTP ([…], time 28 day): 1 IU/L
